The values that follow are results of earlier work, collected in article PMC8127065 (Journal of controlled release : official journal of the …, 2021).

In the case of `C=CC[C@@H]1/C=C(\C)C[C@H](C)C[C@H](OC)[C@H]2O[C@@](O)(C(=O)C(=O)N3CCCC[C@H]3C(=O)O[C@H](/C(C)=C/[C@@H]3CC[C@@H](O)[C@H](OC)C3)[C@H](C)[C@@H](O)CC1=O)[C@H](C)C[C@@H]2OC` [Tacrolimus], the water solubility was 1 to 2 µg/mL.
